# Calls of active or inactive are those of the source. The calls are words filed in the database; no cut-off is given here.
# How the values were obtained:
# Staphylococcus aureus [1] = assay: (§1) Antibacterial activity against methicillin-resistant Staphylococcus aureus ATCC 33591 infected in female C57 mouse systemic infection model assessed as reduction in bacterial load in lung at 40 mg/kg, iv administered twice daily and measured after 7 days; assay type: functional; conditions: time 7 day
# Staphylococcus aureus [2] = assay: Induction of morphological changes in methicillin-resistant Staphylococcus aureus ATCC 33591 assessed as appearance of rough cell surface at 1 time MIC measured after 4 hrs by SEM analysis; assay type: functional, organism-based
# Streptococcus pneumoniae [3] = assay: Ratio of MBC to MIC against penicillin-intermediate Streptococcus pneumoniae ATCC 49619; assay type: functional
# Staphylococcus aureus [4] = assay: Ratio of MBC to MIC against methicillin-resistant Staphylococcus aureus ATCC 33591; assay type: functional
# Staphylococcus aureus [5] = assay: Antibiofilm activity in methicillin-resistant Staphylococcus aureus ATCC 33591 assessed as inhibition of biofilm formation at 1/16 time MIC measured after 48 hrs by crystal violet staining based analysis relative to control; assay type: functional; parameters: scale not given: the % may be the effect or the level left
# Staphylococcus aureus [6] = assay: as §1, with “inflammatory infiltration” for “bacterial load”, “kidney” for “lung”, “days by H and E staining based analysis” for “days”; assay type: functional, organism-based; conditions: time 7.0 day
# Staphylococcus aureus [7] = assay: Antibacterial activity against methicillin-resistant Staphylococcus aureus ATCC 33591 infected in female C57 mouse systemic infection model assessed as restoration of cell morphology at 40 mg/kg, iv administered twice daily and measured after 7 days by H and E staining based analysis; assay type: functional, organism-based; conditions: time 7.0 day
# Staphylococcus aureus [8] = assay: Induction of morphological changes in methicillin-resistant Staphylococcus aureus ATCC 33591 assessed as appearance of shrinked cell surface at 1 time MIC measured after 4 hrs by SEM analysis; assay type: functional, organism-based
# Staphylococcus aureus [9] = assay: (§2) Antibacterial activity against methicillin-resistant Staphylococcus aureus ATCC 33591 infected in female C57 mouse systemic infection model assessed as reduction of edema in kidney at 40 mg/kg, iv administered twice daily and measured after 7 days by H and E staining based analysis; assay type: functional, organism-based; conditions: time 7.0 day
# Staphylococcus aureus [10] = assay: Bactericidal activity against methicillin-resistant Staphylococcus aureus ATCC 33591 at 4 to 8 times MIC measured after 6 to 8 hrs by time kill assay; assay type: functional, organism-based; conditions: time 6-8 hrs
# Staphylococcus aureus [11] = assay: Antibiofilm activity in methicillin-resistant Staphylococcus aureus ATCC 33591 assessed as disruption of preformed biofilm at 1 time MIC measured after 24 hrs by crystal violet staining based assay relative to control; assay type: functional
# Staphylococcus aureus [12] = assay: Antibacterial activity against methicillin-resistant Staphylococcus aureus ATCC 33591 infected in female C57 mouse systemic infection model assessed as reduction in bacterial load in liver at 40 mg/kg, iv administered twice daily and measured after 7 days; assay type: functional; conditions: time 7 day
# Staphylococcus aureus [13] = assay: as §2, with “reduction in appearance” for “reduction”, “loosely arranged cells” for “edema”, “spleen” for “kidney”; assay type: functional, organism-based; conditions: time 7.0 day
# Staphylococcus aureus [14] = assay: Antibiofilm activity in methicillin-resistant Staphylococcus aureus ATCC 33591 measured after 24 hrs by MTT assay; assay type: functional
# [15] = AUC (0 to t) in mouse at 5 mg/kg, iv measured after 8 hrs; assay type: ADME, organism-based; conditions: in vivo
# A549 = assay: Cytotoxicity against human A549 cells at 0 to 40 ug/ml measured after 24 hrs by MTT assay relative to control; assay type: functional; conditions: dose 0-40 µg/ml
# Streptococcus pneumoniae [16] = assay: Antibacterial activity against penicillin-intermediate Streptococcus pneumoniae ATCC 49619 assessed as bacterial growth inhibition measured after 20 hrs by broth dilution method; assay type: functional
# Enterococcus faecium [17] = assay: Ratio of MBC to MIC against vancomycin-resistant Enterococcus faecium clinical isolate 202308456; assay type: functional
# Staphylococcus aureus [18] = assay: Bactericidal activity against methicillin-resistant Staphylococcus aureus ATCC 33591 at 2 times MIC measured after 8 to 12 hrs by time kill assay; assay type: functional, organism-based; conditions: time 8-12 hrs
# Staphylococcus aureus [19] = assay: Induction of morphological changes in methicillin-resistant Staphylococcus aureus ATCC 33591 assessed as appearance of wrinkled cell surface at 1 to 4 times MIC measured after 4 hrs by SEM analysis; assay type: functional, organism-based
# Staphylococcus aureus [20] = assay: Antibacterial activity against methicillin-resistant Staphylococcus aureus clinical isolate 202405157 assessed as bacterial growth inhibition measured after 20 hrs by broth dilution method; assay type: functional
# Staphylococcus aureus [21] = assay: Antibacterial activity against methicillin-resistant Staphylococcus aureus ATCC 43300 assessed as bacterial growth inhibition measured after 20 hrs by broth dilution method; assay type: functional
# Staphylococcus aureus [22] = assay: Ratio of MBC to MIC against methicillin-resistant Staphylococcus aureus clinical isolate 202311772; assay type: functional
# Staphylococcus aureus [23] = assay: Antibacterial activity against methicillin-resistant Staphylococcus aureus ATCC 33591 infected in female C57 mouse systemic infection model assessed as reduction in bacterial load in heart at 40 mg/kg, iv administered twice daily and measured after 7 days; assay type: functional; conditions: time 7 day
# Staphylococcus aureus [24] = assay: Antibacterial activity against methicillin-resistant Staphylococcus aureus ATCC 33591 infected in female C57 mouse systemic infection model assessed as reduction in tubular necrosis in kidney at 40 mg/kg, iv administered twice daily and measured after 7 days by H and E staining based analysis; assay type: functional, organism-based; conditions: time 7.0 day
# Staphylococcus aureus [25] = assay: Antibacterial activity against methicillin-resistant Staphylococcus aureus ATCC 33591 infected in female C57 mouse systemic infection model assessed as survival rate at 5 mg/kg, po measured upto 7 days relative to control; assay type: functional; conditions: ATCC 33591, 168 h, time <= 7 day
# Staphylococcus aureus [26] = assay: as §2, with “reduction” for “reduction of edema”, “disordered myocardial fibers in heart” for “kidney”; assay type: functional, organism-based; conditions: time 7.0 day
# Streptococcus pneumoniae [27] = assay: Ratio of MBC to MIC against penicillin-resistant Streptococcus pneumoniae ATCC 51916; assay type: functional
# [28] = test system: Staphylococcus epidermidis; assay: Antibacterial activity against Staphylococcus epidermidis ATCC 51625 assessed as bacterial growth inhibition measured after 20 hrs by broth dilution method; assay type: functional
# Staphylococcus aureus [29] = assay: Antibacterial activity against methicillin-resistant Staphylococcus aureus ATCC 33591 infected in female C57 mouse systemic infection model assessed as reduction in bacterial load in spleen at 40 mg/kg, iv administered twice daily and measured after 7 days; assay type: functional; conditions: time 7 day
# Staphylococcus aureus [30] = assay: as §2, with “reduction” for “reduction of edema”, “distorted myocardial fibers in heart” for “kidney”; assay type: functional, organism-based; conditions: time 7.0 day
# Enterococcus faecium [31] = assay: Antibacterial activity against vancomycin-resistant Enterococcus faecium clinical isolate 202308456 assessed as bacterial growth inhibition measured after 20 hrs by broth dilution method; assay type: functional
# Staphylococcus aureus [32] = assay: Ratio of MBC to MIC against methicillin-resistant Staphylococcus aureus clinical isolate 202405157; assay type: functional
# [33] = Volume of distribution at steady state in mouse at 5 mg/kg, iv measured after 8 hrs; assay type: ADME, organism-based; conditions: in vivo, read-out: Vdss
# Staphylococcus aureus [34] = assay: Bactericidal activity against methicillin-resistant Staphylococcus aureus ATCC 33591 at 1 times MIC measured upto 24 hrs by time kill assay; assay type: functional, organism-based
structure (smiles),measurement,setting,value
C=C[C@]1(C)C[C@@H](OC(=O)CSc2cc(=O)oc3cc(OC)ccc23)[C@]2(C)[C@H](C)CC[C@]3(CCC(=O)[C@H]32)[C@@H](C)[C@@H]1O,Activity,Staphylococcus aureus [1],2.21 log10CFU/g
same,Activity,Staphylococcus aureus [2],Active
same,Ratio,Streptococcus pneumoniae [3],>4
same,Ratio,Staphylococcus aureus [4],2
same,Activity,Staphylococcus aureus [5],50.42%
same,Activity,Staphylococcus aureus [6],Active
same,Activity,Staphylococcus aureus [7],Active
same,Activity,Staphylococcus aureus [8],Active
same,Activity,Staphylococcus aureus [9],Active
same,Activity,Staphylococcus aureus [10],Active
same,Activity,Staphylococcus aureus [11],30.31%
same,Activity,Staphylococcus aureus [12],2.05 log10CFU/g
same,Activity,Staphylococcus aureus [13],Active
same,MBEC,Staphylococcus aureus [14],8 µg/mL
same,AUCt,[15],1740 ng·h/mL
same,Activity,A549,>85%
same,MIC,Streptococcus pneumoniae [16],0.031 µg/mL
same,Ratio,Enterococcus faecium [17],2
same,Activity,Staphylococcus aureus [18],Active
same,Activity,Staphylococcus aureus [19],Active
same,MIC,Staphylococcus aureus [20],0.063 µg/mL
same,MIC,Staphylococcus aureus [21],0.031 µg/mL
same,Ratio,Staphylococcus aureus [22],1
same,Activity,Staphylococcus aureus [23],3.33 log10CFU/g
same,Activity,Staphylococcus aureus [24],Active
same,survival at 5 mg/kg,Staphylococcus aureus [25],40%
same,Activity,Staphylococcus aureus [26],Active
same,Ratio,Streptococcus pneumoniae [27],2
same,MIC,[28],0.016 µg/mL
same,Activity,Staphylococcus aureus [29],1.68 log10CFU/g
same,Activity,Staphylococcus aureus [30],Active
same,MIC,Enterococcus faecium [31],0.031 µg/mL
same,Ratio,Staphylococcus aureus [32],2
same,Vd,[33],1.76 L/kg
same,Activity,Staphylococcus aureus [34],Active
